Source: US11566029B2, “Pyrazolo[1,5-a]pyrimidine-5,7-diamine compounds as CDK inhibitors and their therapeutic use” (CANCER RESEARCH TECHNOLOGY LIMITED, priority 2014, dated 2023)
Counter-ions that a name gives are not always drawn.

How the values were obtained:
[1] = biological target: T1, CDK2/cycA1 (Homo sapiens, UniProt P24941); assay: In vitro kinase assay (PKLight luciferase ATP readout), CDK2; type: biochemical; settings: ATP at Km; read-out: In vitro Kinase Inhibition CDK2 IC50
T1 construct: purchased ProQinase GmbH
Method: (§1) Purified recombinant CDK1/cycA1, CDK2/cycA1, CDK4/cycD1, CDK5/p35NCK, CDK6/cycD1, CDK7/CycH/MAT1, and CDK9/CycT1 were purchased from ProQinase GmbH. Kinase assays were performed according to manufacturer's protocols. Rb-CTF (ProQinase GmbH) (cat number: 0040-0000-6) was used as the kinase substrate for CDK1, CDK2, CDK4, and CDK6 kinases. […] A luciferase assay (PKLight assay; Cambrex) was used to determine ATP remaining at the end of the kinase reaction, which provides a measure of kinase activity, according to the manufacturer's protocols.
(§2) Kinase assays were carried out by incubation of increasing amounts of test compound with purified recombinant CDK-Cyclin complex, followed by measurement of free ATP remaining in the reaction using the luciferase assay kit (PKLight, Cambrex) which therefore provided a measure of inhibition for the specific CDK.
(§3) 5 μL of 1× kinase buffer (Cell Signalling Technologies) was mixed with 200 ng CDK1, 200 ng CDK2, 50 ng CDK4, 100 ng CDK5, or 200 ng CDK6 with 5 μg Rb-CTF and 300 ng CDK7 or 200 ng CDK9 with 500 μM RNA Poll II CTD peptide. […] The mixture was incubated at 30° C. for 30 minutes. The reaction is stopped with 20 μL of Stop Solution (provided in the PKLight kit) for 10 minutes at room temperature. Then 40 μL of the luciferase mix was added to the reaction mixture which was incubated for a further 10 minutes at room temperature and measured using the Tecan Infinite 2000 plate reader. GraphPad Prism Software was used to generate standard curve and determine the IC50's for each CDK.

[2] = biological target: T2, CDK7/CycH/MAT1 (Homo sapiens, UniProt P50613); assay: In vitro kinase assay (PKLight luciferase ATP readout), CDK7; type: biochemical; settings: for IC50: ATP at Km, read-out: In vitro Kinase Inhibition CDK7 IC50; for Selectivity CDK1/CDK7: ratio of CDK1 IC50 to CDK7 IC50; for Selectivity CDK2/CDK7: ratio of CDK2 IC50 to CDK7 IC50
T2 construct: purchased ProQinase GmbH
Method: as §1, §2, §3

[3] = biological target: T3, CDK1/cycA1 (Homo sapiens, UniProt P06493); assay: In vitro kinase assay (PKLight luciferase ATP readout), CDK1; type: biochemical; settings: ATP at Km; read-out: In vitro Kinase Inhibition CDK1 IC50
T3 construct: purchased ProQinase GmbH
Method: as §1, §2, §3

[4] = tested on: HCT116 cells; assay: Cell growth inhibition assay (sulforhodamine B), HCT116; type: cell-based; settings: Homo sapiens, HCT-116; 72 hours, SRB assay; read-out: Growth Inhibition, GI50 HCT116
Method: (§4) All cells were purchased from the American Type Culture Collection (ATCC) and MCF7 cells were routinely cultured in Dulbecco's Modified Eagle's Medium (DMEM) supplemented with 10% fetal calf serum (FCS) (First Link) and HCT116 cells were routinely cultured in Roswell Park Memorial Instititute Medium (RPMI) supplemented with 10% FCS. Cell growth was assessed using a known sulforhodamine B assay (see, e.g., Skehan et al., 1990).
(§5) MCF-7 cells purchased from ATCC (USA) were routinely passaged in DMEM, supplemented with 10% FCS and HCT116 cells purchased from ATCC (USA) were routinely passaged in RPMI supplemented with 10% FCS and kept in a 37° C. incubator with 5% CO2. The growth assay for both cell lines was performed in the appropriate media using the exact same protocol as described here. For the growth assay, 5000 cells were seeded into each well of 96-well plates in DMEM containing 10% FCS. Test compounds prepared in DMSO were added to the medium at concentrations ranging from 0.00038-100 μM. The cells were incubated for a further 72 hours, at which time they were fixed by the addition of 100 μL/well of ice-cold 40% trichloroacetic acid (TCA). The plates were left for 1 hour at 4° C., washed in water and 100 μL of 0.4% (w/v) sulforhodamine (SRB; Sigma-Aldrich, UK) prepared in 1% acetic acid was added. Plates were washed in 1% acetic acid to remove excess SRB reagent, air dried, and bound dye was solubilized by the addition of 100 μL of 10 mM tris base. The plates were read at 492 nm using a plate reader.

[5] = tested on: MCF7 cells; assay: Cell growth inhibition assay (sulforhodamine B), MCF7; type: cell-based; settings: Homo sapiens, 72 hours, SRB assay, read-out: Growth Inhibition, GI50 MCF7
Method: as §4, §5

T2 sequence (P50613 whole entry): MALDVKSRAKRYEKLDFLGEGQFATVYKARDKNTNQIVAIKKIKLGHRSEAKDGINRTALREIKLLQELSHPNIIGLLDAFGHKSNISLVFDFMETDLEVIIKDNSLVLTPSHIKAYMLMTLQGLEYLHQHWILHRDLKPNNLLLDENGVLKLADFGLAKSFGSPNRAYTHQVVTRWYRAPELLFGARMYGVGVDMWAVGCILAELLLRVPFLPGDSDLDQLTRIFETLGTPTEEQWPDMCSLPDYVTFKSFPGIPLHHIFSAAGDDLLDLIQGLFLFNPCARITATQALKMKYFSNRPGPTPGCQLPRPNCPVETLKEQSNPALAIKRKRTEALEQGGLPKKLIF
T2 sequence (P51946 whole entry partner): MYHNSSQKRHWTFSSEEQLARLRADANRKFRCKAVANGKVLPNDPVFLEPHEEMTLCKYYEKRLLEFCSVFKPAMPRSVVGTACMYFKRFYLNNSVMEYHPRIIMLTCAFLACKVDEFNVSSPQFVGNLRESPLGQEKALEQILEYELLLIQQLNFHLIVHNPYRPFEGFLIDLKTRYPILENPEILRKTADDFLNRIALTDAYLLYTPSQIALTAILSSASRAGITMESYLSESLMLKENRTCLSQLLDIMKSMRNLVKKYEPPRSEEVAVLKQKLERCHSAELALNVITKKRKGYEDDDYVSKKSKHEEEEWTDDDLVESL
T2 sequence (P51948 whole entry partner): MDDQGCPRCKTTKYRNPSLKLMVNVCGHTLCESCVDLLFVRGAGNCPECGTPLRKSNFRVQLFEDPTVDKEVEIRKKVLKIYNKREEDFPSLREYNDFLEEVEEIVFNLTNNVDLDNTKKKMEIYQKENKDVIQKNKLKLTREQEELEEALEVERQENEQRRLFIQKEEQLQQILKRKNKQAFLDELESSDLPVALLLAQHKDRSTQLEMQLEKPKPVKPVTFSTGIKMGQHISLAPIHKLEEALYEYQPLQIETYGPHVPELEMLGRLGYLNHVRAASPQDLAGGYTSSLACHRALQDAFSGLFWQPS

Compound	IC50 [1] [nM]	IC50 [2] [nM]	IC50 [3] [nM]	GI50 [4] [nM]	GI50 [5] [nM]	Selectivity CDK1/CDK7 [2] [fold]	Selectivity CDK2/CDK7 [2] [fold]
CC(C)c1cnn2c(NCc3ccccc3)cc(N[C@@H]3CNCC[C@]3(O)CO)nc12 [PPDA-025]	106	77	285				
CC(C)c1cnn2c(NCc3ccccc3Cl)cc(NC[C@@]3(CO)CCNC3)nc12 (racemic) [PPDA-021]	22	81	177	1200	200	2.2	0.3
CC(C)c1cnn2c(Nc3ccc(S(=O)(=O)N(C)C)cc3)cc(NC[C@H]3CCNC[C@@H]3O)nc12 [PPDA-005]	38	111	213	7200	4220	1.9	0.3
CC(C)c1cnn2c(NCc3ccccc3)cc(NC[C@]3(O)CCNC[C@H]3O)nc12 (racemic) [PPDA-002, (3R,4R)-4-((7-(Benzylamino)-3-iso-propyl-pyrazolo[1,5-a]pyrimidin-5-ylamino)methyl)piperidine-3,4-diol hydrochloride]	2030	18	1380	5100	1500	77	113
CC(C)c1cnn2c(NCC3CCCCC3)cc(NC[C@]3(O)CCNC[C@H]3O)nc12 (racemic) [PPDA-014]	481	975	8680	53500	45600	8.9	0.5
CC(C)c1cnn2c(NCc3ccccc3)cc(NC3CNCC[C@]3(O)CO)nc12 (stereo partly shown) [PPDA-025]				23700	10100	3.7	1.4
CC(C)c1cnn2c(NCc3ccccc3)cc(NC[C@H]3NCC[C@@H]3O)nc12 [PPDA-031]	393	473		20400	5600		0.8
CC(C)c1cnn2c(NCc3ccccc3)cc(N[C@H]3CNCC[C@@]3(O)CO)nc12 [PPDA-024]	1030	150	844	46400	12200	5.6	6.8
CC(C)c1cnn2c(NCc3ccccc3)cc(NC[C@@H]3C[C@@H](O)CN3)nc12 [PPDA-030]	999	59		> 100000	20200		17
CC(C)c1cnn2c(NCc3ccccc3)cc(NC[C@H]3NC[C@H](O)[C@@H]3O)nc12 [PPDA-032]	1500	305					4.9
CC(C)c1cnn2c(NCc3ccncc3)cc(NC[C@H]3CCNC[C@@H]3O)nc12 [PPDA-003, (3R,4R)-4-((3-iso-Propyl-7-(pyridin-4-ylmethylamino)pyrazolo[1,5-a]pyrimidin-5-ylamino)methyl)piperidin-3-ol hydrochloride]	114	47	1910			41	2.5
CC(C)c1cnn2c(NC3CCN(S(=O)(=O)c4ccc(F)cc4)CC3)cc(NC[C@H]3CCNC[C@@H]3O)nc12 [PPDA-006]	178	40	405	10000	8400	10	4.5
CC(C)c1cnn2c(NCc3ccccc3)cc(NCC3CCNCC3)nc12 [XX-01, reference compound]		310		18700	12200		
CC(C)c1cnn2c(Nc3csc4ccccc34)cc(NC[C@H]3CCNC[C@@H]3O)nc12 [PPDA-008]	42	120	2950	5100	3100	25	0.4
CC(C)c1cnn2c(NCc3ccccc3)cc(N[C@H]3CNCC3O)nc12 (stereo in doubt) [PPDA-015, (3S,4S)-4-(7-(Benzylamino)-3-iso-propyl-pyrazolo[1,5-a]pyrimidin-5-ylamino)-pyrrolidin-3-ol hydrochloride]	1290	27	3950	12700	4100	146	48
CC(C)c1cnn2c(NCc3ccccc3)cc(NCC3(CO)CCNC3)nc12 (racemic) [PPDA-018, (3-((7-(Benzylamino)-3-iso-propylpyrazolo [1,5-a]pyrimidin-5ylamino)methyl)pyrrolidin-3-yl)methanol hydrochloride]	1	14	41	900	100	2.9	0.1
CC(C)c1cnn2c(NCc3ccccc3)cc(N[C@@H]3CNCC[C@H]3O)nc12 [PPDA-022, (3R,4R)-3-(7-(Benzylamino)-3-iso-propyl-pyrazolo[1,5-a]pyrimidin-5-ylamino) piperidin-4-ol]	568	73	1900	10400	3700	26	7.8
CO[C@H]1CN[C@H](CNc2cc(NCc3ccccc3)n3ncc(C(C)C)c3n2)C1 [PPDA-029]	2840	1010		> 100000	17600		2.8
CC(C)c1cnn2c(NCc3ccccc3)cc(NC[C@H]3CCCC[C@@H]3O)nc12 [XX-02, reference compound]		687		> 100000	47000		
